Reference: ChEMBL document CHEMBL1201862, “PubChem BioAssay data set” (2004)
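Exposure lasted 48 hours, with cells grown in 96-well plates and compounds tested at five concentrations. GI50 = concentration required for 50% inhibition of growth.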 Activity calls are given as the source filed them. No stated cut-off is given here; in the data, active = GI50 up to about 1.1 µM and inactive = higher.

Columns and labels:
Assay in all cases: inhibition of tumour cell growth, NCI panel, 48 h
OVCAR-8 = tested on: OVCAR-8
HCT-116 = tested on: HCT-116
HCC 2998 = tested on: HCC 2998
HOP-62 = tested on: HOP-62
Hs-578T = tested on: Hs-578T
ACHN = tested on: ACHN
A498 = tested on: A498
MDA-MB-435 = tested on: MDA-MB-435
TK-10 = tested on: TK-10
HCT-15 = tested on: HCT-15
MDA-MB-231 = tested on: MDA-MB-231
OVCAR-5 = tested on: OVCAR-5
RXF 631 = tested on: RXF 631
786-0 = tested on: 786-0
BT-549 = tested on: BT-549
SNB-75 = tested on: SNB-75
RPMI-8226 = tested on: RPMI-8226
KM-20L2 = tested on: KM-20L2
CCRF-CEM = tested on: CCRF-CEM
EKVX = tested on: EKVX
SNB-78 = tested on: SNB-78
SNB-19 = tested on: SNB-19
UACC-257 = tested on: UACC-257
SF-295 = tested on: SF-295
SK-MEL-28 = tested on: SK-MEL-28
HL-60 = tested on: HL-60
LXFL 529 = tested on: LXFL 529
SK-OV-3 = tested on: SK-OV-3
SW-620 = tested on: SW-620
K562 = tested on: K562
LOX IMVI = tested on: LOX IMVI
CAKI-1 = tested on: CAKI-1
HOP-92 = tested on: HOP-92
T47D = tested on: T47D
NCI-H460 = tested on: NCI-H460
UACC-62 = tested on: UACC-62
DLD-1 = tested on: DLD-1
PC-3 = tested on: PC-3
Malme-3M = tested on: Malme-3M
SN12C = tested on: SN12C
DMS-273 = tested on: DMS-273
KM12 = tested on: KM12
MOLT-4 = tested on: MOLT-4
COLO 205 = tested on: COLO 205
U-251 = tested on: U-251
SR = tested on: SR
A549 = tested on: A549
RXF 393 = tested on: RXF 393
NCI/ADR-RES = tested on: NCI/ADR-RES
SF-268 = tested on: SF-268
IGROV-1 = tested on: IGROV-1
MDA-N = tested on: MDA-N
SF-539 = tested on: SF-539
SK-MEL-2 = tested on: SK-MEL-2
OVCAR-4 = tested on: OVCAR-4
NCI-H522 = tested on: NCI-H522
DU-145 = tested on: DU-145
M14 = tested on: M14
OVCAR-3 = tested on: OVCAR-3
NCI-H23 = tested on: NCI-H23
SK-MEL-5 = tested on: SK-MEL-5
MCF7 = tested on: MCF7
UO-31 = tested on: UO-31
NCI-H226 = tested on: NCI-H226
HT-29 = tested on: HT-29
HOP-18 = tested on: HOP-18
M19-MEL = tested on: M19-MEL
DMS-114 = tested on: DMS-114

## CCC1(OC(=O)CNC)C(=O)OCc2c1cc1n(c2=O)Cc2cc3ccccc3nc2-1 (configuration not stated)
OVCAR-8
  GI50: 12.6 nM (active)
HCT-116
  GI50: 15 nM (active)
HCC 2998
  GI50: 204 nM (active)
HOP-62
  GI50: < 10 nM (active)
Hs-578T
  GI50: 403 nM (active)
ACHN
  GI50: < 10 nM (active)
A498
  GI50: < 17.9 nM (active)
MDA-MB-435
  GI50: 23.4 nM (active)
TK-10
  GI50: 1290 nM (inactive)
HCT-15
  GI50: 94.2 nM
MDA-MB-231
  GI50: 310 nM (active)
OVCAR-5
  GI50: 24.7 nM (active)
RXF 631
  GI50: < 10 nM (active)
786-0
  GI50: < 10 nM (active)
BT-549
  GI50: 59.4 nM (active)
SNB-75
  GI50: < 10.4 nM (active)
RPMI-8226
  GI50: < 13.7 nM (active)
KM-20L2
  GI50: 33.6 nM (active)
CCRF-CEM
  GI50: < 10 nM (active)
EKVX
  GI50: 127 nM (active)
SNB-78
  GI50: 263 nM (active)
SNB-19
  GI50: < 10 nM (active)
UACC-257
  GI50: 39.3 nM (active)
SF-295
  GI50: < 10 nM (active)
SK-MEL-28
  GI50: 213 nM (active)
HL-60
  GI50: < 10 nM (active)
LXFL 529
  GI50: 207 nM (active)
SK-OV-3
  GI50: < 10 nM (active)
SW-620
  GI50: < 10 nM (active)
K562
  GI50: 30.3 nM (active)
LOX IMVI
  GI50: < 10 nM (active)
CAKI-1
  GI50: < 10 nM (active)
HOP-92
  GI50: 49.1 nM (active)
T47D
  GI50: < 10 nM (active)
NCI-H460
  GI50: < 10 nM (active)
UACC-62
  GI50: < 10 nM (active)
DLD-1
  GI50: 294 nM (active)
PC-3
  GI50: 26.9 nM (active)
Malme-3M
  GI50: 54.3 nM (active)
SN12C
  GI50: < 10 nM (active)
DMS-273
  GI50: < 10 nM (active)
KM12
  GI50: 68.5 nM (active)
MOLT-4
  GI50: < 10 nM (active)
COLO 205
  GI50: 148 nM (active)
U-251
  GI50: < 10 nM (active)
SR
  GI50: < 10 nM (active)
A549
  GI50: < 10 nM (active)
RXF 393
  GI50: 18.5 nM (active)
NCI/ADR-RES
  GI50: < 10 nM (active)
SF-268
  GI50: < 10 nM (active)
IGROV-1
  GI50: 60.1 nM (active)
MDA-N
  GI50: 41.9 nM (active)
SF-539
  GI50: < 10 nM (active)
SK-MEL-2
  GI50: 155 nM (active)
OVCAR-4
  GI50: 97.7 nM (active)
NCI-H522
  GI50: < 11.6 nM (active)
DU-145
  GI50: < 10 nM (active)
M14
  GI50: < 10.5 nM (active)
OVCAR-3
  GI50: 71.3 nM (active)
NCI-H23
  GI50: < 10 nM (active)
SK-MEL-5
  GI50: < 12.5 nM (active)
MCF7
  GI50: < 10 nM (active)
UO-31
  GI50: < 12.5 nM (active)
NCI-H226
  GI50: < 10 nM (active)
HT-29
  GI50: 33.5 nM (active)
HOP-18
  GI50: 17.7 nM (active)

## C1CC2=C(C1)C1=S(S2)SC2=C1CCC2
OVCAR-8
  GI50: > 100000 nM (inactive)
HCT-116
  GI50: > 100000 nM (inactive)
HCC 2998
  GI50: > 100000 nM (inactive)
ACHN
  GI50: 45700 nM (inactive)
A498
  GI50: 10700 nM (inactive)
TK-10
  GI50: > 100000 nM (inactive)
HCT-15
  GI50: > 100000 nM
M19-MEL
  GI50: > 100000 nM (inactive)
OVCAR-5
  GI50: > 100000 nM (inactive)
RXF 631
  GI50: > 100000 nM (inactive)
786-0
  GI50: > 100000 nM (inactive)
SNB-75
  GI50: > 100000 nM (inactive)
RPMI-8226
  GI50: > 100000 nM (inactive)
KM-20L2
  GI50: > 100000 nM (inactive)
CCRF-CEM
  GI50: > 100000 nM (inactive)
EKVX
  GI50: > 100000 nM (inactive)
SNB-78
  GI50: > 100000 nM (inactive)
SNB-19
  GI50: > 100000 nM (inactive)
UACC-257
  GI50: > 100000 nM (inactive)
SF-295
  GI50: > 100000 nM (inactive)
SK-MEL-28
  GI50: > 100000 nM (inactive)
HL-60
  GI50: > 100000 nM (inactive)
LXFL 529
  GI50: > 100000 nM (inactive)
SK-OV-3
  GI50: > 100000 nM (inactive)
SW-620
  GI50: > 100000 nM (inactive)
K562
  GI50: > 100000 nM (inactive)
LOX IMVI
  GI50: > 100000 nM (inactive)
CAKI-1
  GI50: > 100000 nM (inactive)
HOP-92
  GI50: > 100000 nM (inactive)
NCI-H460
  GI50: > 100000 nM (inactive)
UACC-62
  GI50: > 100000 nM (inactive)
DLD-1
  GI50: > 100000 nM (inactive)
Malme-3M
  GI50: > 100000 nM (inactive)
SN12C
  GI50: > 100000 nM (inactive)
DMS-273
  GI50: > 100000 nM (inactive)
KM12
  GI50: > 100000 nM (inactive)
MOLT-4
  GI50: > 100000 nM (inactive)
COLO 205
  GI50: > 100000 nM (inactive)
U-251
  GI50: > 100000 nM (inactive)
A549
  GI50: > 100000 nM (inactive)
RXF 393
  GI50: > 100000 nM (inactive)
SF-268
  GI50: > 100000 nM (inactive)
IGROV-1
  GI50: > 100000 nM (inactive)
SF-539
  GI50: > 100000 nM (inactive)
SK-MEL-2
  GI50: > 100000 nM (inactive)
OVCAR-4
  GI50: > 100000 nM (inactive)
NCI-H522
  GI50: > 100000 nM (inactive)
M14
  GI50: > 100000 nM (inactive)
OVCAR-3
  GI50: > 100000 nM (inactive)
NCI-H23
  GI50: > 100000 nM (inactive)
SK-MEL-5
  GI50: > 100000 nM (inactive)
UO-31
  GI50: > 100000 nM (inactive)
DMS-114
  GI50: > 100000 nM (inactive)
NCI-H226
  GI50: > 100000 nM (inactive)
HT-29
  GI50: > 100000 nM (inactive)
HOP-18
  GI50: > 100000 nM (inactive)
